Reference: the METLIN SMRT retention time set (Domingo-Almenara et al. 2019)

assay: gradient 5% acetonitrile 3 min, to 50% in 2 min, to 85% in 15 min, held 3 min, 100 µL/min; conditions: column: Zorbax Extend-C18 2.1 x 50 mm; eluents: water / acetonitrile, 0.1% formic acid
Outline: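 The mobile phases were water and acetonitrile, each with 0.1% formic acid, pumped at 100 μL/min through a Zorbax Extend-C18 column (2.1 × 50 mm, 1.8 μm). Pure standards were injected as mixtures of ~100 molecules and detected by a quadrupole time-of-flight mass spectrometer in positive and negative ionization mode. Retention time came from computationally picked adduct peaks, each inspected by hand.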

SMILES | RP-LC retention time
Cc1ccc(-c2nnc(-c3cccc(S(=O)(=O)N4CCCC4)c3)o2)cc1 | 1010 s
CCc1ccc(C(=O)N2CCCC(COc3ccc(C(=O)NC(C)C)cc3)C2)cc1 (centres undefined) | 944 s
O=C(NC1CCCCC1)C1CCN(c2cncnc2N2CCCCC2)CC1 | 672 s
CCOC(=O)C1CCCN(Cc2nc(-c3cc(OC)c(OC)c(OC)c3)no2)C1 (centres undefined) | 774 s
COc1ccc(-c2nc(-c3cn(Cc4cccc(F)c4)nn3)no2)cc1 | 983 s
Cc1cc(F)ccc1NC(=O)CN1C(=O)CCCc2cc(S(=O)(=O)N3CCCCC3)ccc21 | 959 s
CC(C)CC(=O)Nc1ccc2c(c1)nc(CN1CCOCC1)n2C(C)C | 630 s
CC(=O)Nc1ccc(C2(C(=O)NCc3ccc4c(c3)OCO4)CCC2)cc1 | 730 s
Cc1ccc(-c2coc(-c3ccc(NC(=O)NC4CCCC4)cc3)n2)c(C)c1 | 1180 s
Cc1nn2c(CNS(=O)(=O)Cc3ccccc3)c(-c3ccccc3)nc2s1 | 876 s
COc1ccc(C2(C(=O)N3CCCCCCNC(=O)[C@@H]4CCCC[C@@H]43)CC2)cc1 | 894 s
Cc1cc(C)cc(Oc2nccn3c(=O)n(CC(=O)Nc4ccc(F)cc4)nc23)c1 | 905 s
O=C(Cc1ccccc1)N1[C@H]2CC[C@@H]1c1cnc(-c3ccccc3)nc1C2 | 898 s
O=C(Nc1cnc(-c2ccccc2)nc1)C1CCC1 | 856 s
O=C(Cc1c[nH]c2ccccc12)N1CCC(NS(=O)(=O)c2ccc(F)cc2)CC1 | 781 s
Cc1nn2c(=O)cc(CSc3nnc(-c4ccc5c(c4)OCO5)o3)nc2s1 | 713 s
COc1ccc(C)cc1NC(=O)C1CCN(S(C)(=O)=O)c2cc(C)ccc2O1 (centres undefined) | 1030 s
Cc1nnc(N2CCC(C(=O)N3CCN(c4ccccn4)CC3)CC2)c2nn(-c3ccccc3)c(C)c12 | 569 s
COc1ccc(NC(=O)c2cc3ccccc3c(=O)o2)c([N+](=O)[O-])c1 | 920 s
Cc1ccc(CNC(=O)C2CCCN(c3nnc(C)c4c(C)n(-c5ccc(Cl)cc5)nc34)C2)cc1 (centres undefined) | 784 s
COc1cccc(NC(=O)C2CCN(S(=O)(=O)c3cc(-c4noc(C)n4)cs3)CC2)c1 | 883 s
Cc1cccc(Sc2nccnc2N2CCCC(C(=O)NCCN3CCOCC3)C2)c1 (centres undefined) | 686 s
Cc1cc(C)cc(S(=O)(=O)N2CCC(c3nc(C(=O)N4CCCC4)c(C)o3)CC2)c1 | 1010 s

SMILES | RP-LC retention time
CN(C)c1ccc(NC(=O)c2c(O)c3ccccc3n(-c3ccccc3)c2=O)cc1 | 1180 s
O=C(NCc1cccc(F)c1)C1c2ccccc2CCN1C(=O)C1CC1 (centres undefined) | 840 s
COC(=O)CNC(=O)NCCn1c(C(F)(F)F)nc2ccccc21 | 653 s
CCN(C(=O)Cc1ccccc1)c1nc(-c2ccc(C)cc2)cs1 | 1320 s
Cc1c(C2CCN(C(=O)NCc3ccc(F)cc3)CC2)noc1N | 683 s
CS(=O)(=O)N1CC[C@H]2CN(Cc3cn[nH]c3-c3ccc(F)cc3)C[C@@]2(CF)C1 | 576 s
COc1cc(C2CC(=O)c3cnc(N4CCN(CCO)CC4)nc3C2)cc(OC)c1OC (centres undefined) | 559 s
CC(NC(=O)C1CCCN(c2cnc3nccnc3c2)C1)c1cccnc1 (centres undefined) | 598 s
Nc1nc(-c2ccc(F)cc2)nn1C(=O)c1ccc(F)cc1 | 969 s
COc1ccc(-c2nnc(-c3cc(S(=O)(=O)N4CCCCCC4)ccc3Cl)o2)cc1 | 1150 s
O=S(=O)(c1cccnc1)N1CCCCC1c1nncn1CC1CC1 (centres undefined) | 662 s
CCOc1ccccc1NC(=O)c1cnc(-c2ccccc2)nc1-c1ccncc1 | 978 s
CC(Cc1ccco1)NC(=O)c1ccc2nc(CCc3ccccc3)oc2c1 (centres undefined) | 714 s
Cc1nnc2sc(SCC(=O)Nc3cccc(C(F)(F)F)c3)nn2c1=O | 759 s
CCC(CC)NC(=O)CCC1CCN(c2cc(NC3CC3)ncn2)CC1 | 654 s
CCCCn1cc(S(=O)(=O)Nc2ccc(CC)cc2)c2cccnc21 | 1040 s
CCCN(CCC)C1Cc2cc(OC)c(OC)cc2C1 | 680 s
CCCN1CCN(C(=O)CC(c2cc(OC)c(OC)c(OC)c2)N2Cc3ccccc3C2=O)CC1 (centres undefined) | 626 s
Cc1cc(N)n(-c2nc(C)nc3sc4c(c23)CCC(C)C4)n1 (centres undefined) | 857 s
Cc1ccc(NC(=O)N2CCCC(CC(=O)N3CCC(Cc4ccccc4)CC3)C2)cc1 (centres undefined) | 1120 s
O=C(C1CCN(c2ccc(-c3cccs3)nn2)CC1)N1CCN(c2ccccn2)CC1 | 568 s
CCCN1C(=O)NC(=O)C2NCNC21 (centres undefined) | 604 s
Cc1ccc(F)cc1S(=O)(=O)N1CCc2c(c(-c3nnc(-c4ccccc4F)o3)nn2C)C1 | 981 s

SMILES | RP-LC retention time
O=C(CN1CCN(Cc2cccc(Cl)c2)C1=O)NC1CC1 | 683 s
COc1ccc(CCN2CCC(CNS(=O)(=O)c3ccc4c(c3)CCCC(=O)N4)CC2)cc1 | 628 s
CCn1cc(-c2nc(C)c(C(=O)Nc3ccc4c(c3)OCCO4)s2)c2cccnc21 | 925 s
COc1ccc(-c2nnc(-c3cc(S(=O)(=O)N4CCN(C)CC4)ccc3Cl)o2)cc1 | 682 s
Cc1ccccc1CSc1ncnc2nc[nH]c12 | 744 s
Cc1ccccc1C(=O)Nc1ccccc1NC(=O)C1CCC1 | 795 s
CN(C)c1nc2cc(C(=O)NCc3ccncc3)sc2n1-c1ccccc1 | 1130 s
Cc1cc(C)cc(NC(=O)C2CCCN2S(=O)(=O)c2cc3c(cc2C)NC(=O)CO3)c1 (centres undefined) | 815 s
COc1ccc(NC(=O)N2CCN(CCn3c(C(C)C)nc4cccnc43)CC2)c(OC)c1 | 592 s
Cn1cc(CC(=O)N2CCC(C(=O)NCC(F)(F)F)CC2)c2ccccc21 | 718 s
O=C(NCc1ccc(Br)cc1)C1CCN(c2cnc3nccnc3c2)CC1 | 746 s
CCN(CC)S(=O)(=O)c1cc(-c2nnc(-c3ccc(OC)c(OC)c3)o2)ccc1C | 991 s
CCc1ccccc1NC(=O)C1CC(=O)N(c2ccc3c(c2)CCN3C(=O)C2CC2)C1 (centres undefined) | 780 s
COCCOCc1nc(C2CCN(C(=O)NC3CCCCC3)CC2)no1 | 709 s
Cc1cc(OCC(=O)NCc2ccc3c(c2)OCO3)nc(N2CCCCCC2)n1 | 594 s
CCc1onc(C)c1C1CCCN1C(=O)Nc1cc(C)ccc1OC (centres undefined) | 935 s
COc1ccccc1N1CCN(C(=O)CCc2c(C)n(C)c3nc(-c4ccccc4)nn3c2=O)CC1 | 761 s
CCc1ccc(NC(=O)Cn2c(=O)c3cc(C)nn3c3ncccc32)cc1 | 786 s
CSc1ccc(Nc2ncccc2S(=O)(=O)Nc2ccc(F)cc2)cc1 | 1100 s
Cc1c(-c2noc(C3CCCCC3)n2)nnn1-c1ccccc1 | 1160 s
Cc1ccc(C)c(C(=O)N2C[C@@H](F)C[C@H]2C(=O)N2CCCCC2)c1 | 710 s
COc1ccc(C2Cn3nnc(-c4nc(-c5ccccc5OC)no4)c3CO2)cc1 (centres undefined) | 1010 s
C=CCN1C(=O)COc2ccc(-c3csc(NC(=O)c4ccc(C)cc4)n3)cc21 | 1050 s

SMILES | RP-LC retention time
COc1ccccc1-n1c(SCC(=O)Nc2cc(C)on2)nc2c(c1=O)SCC2 | 728 s
Cc1noc(C)c1CNC(=O)CCCc1ccccc1 | 760 s
Cc1nc(N2CCN(Cc3ccc4c(c3)OCO4)CC2)nc2c1C(=O)CC(C)C2 (centres undefined) | 684 s
COc1cccc(C(c2sc3ncnn3c2O)N2CCN(C(=O)c3ccco3)CC2)c1 (centres undefined) | 642 s
CCCn1cc(S(=O)(=O)NCc2cccc(Cl)c2)c2cccnc21 | 950 s
C[C@@H]1COCCN1c1cc(C2(S(C)(=O)=O)CC2)nc(-c2cccc3[nH]ccc23)n1 | 775 s
COCCNC(=O)c1nc2ccccn2c1-c1ccc(Cl)cc1 | 731 s
CC(C)C(=O)N1CCC2(CC1)CCC(O)(CN(C)C)CC2 | 559 s
O=C(CCC(=O)N1c2ccccc2NC2=C(C(=O)CCC2)C1c1ccco1)Nc1ccccc1 (centres undefined) | 744 s
CCOC(=O)c1cccc(NC(=O)C2CCCN(C(=O)C3Sc4ccccc4NC3=O)C2)c1 (centres undefined) | 851 s
CCc1nccn1Cc1nc(-c2ccc(C)c(C)c2)no1 | 681 s
O=C(c1ccc2c(c1)OCO2)N1CCC2(CC1)N=C(c1ccccc1)NO2 | 858 s
COC(=O)c1c(C)[nH]c(C(=O)N2CCCC(C(=O)NCCc3ccco3)C2)c1C (centres undefined) | 698 s
COc1ccc(NC(=O)Cn2nc(N3CCOCC3)c3ccccc3c2=O)cc1 | 730 s
Cc1cc(NS(=O)(=O)c2ccc(-c3c(C)noc3C)cc2)ccc1Br | 1030 s
O=S(=O)(CCOc1ccccc1)NCc1ccccc1 | 674 s
Cc1nc(-c2ccc(NC(=O)N3CCCc4ccccc43)cc2)no1 | 900 s
CN(C(=O)CSc1nnc(-c2cn(C)nc2-c2ccccc2)n1C)c1ccccc1 | 712 s
Cn1c(C(=O)NCc2ccccc2)cc2sccc21 | 892 s
CCc1ccc(NC(=O)Cn2nc3cc(C)nc(Nc4ccc(F)c(C)c4)n3c2=O)cc1 | 1160 s
